Laboratory results as given in US20130060020A1, “Compounds useful for treating neurodegenerative disorders” (Satori Pharmaceuticals, Inc., priority 2011, published 2013).
Where two headings read alike, the source gives them in different places.

Legend:
Aβ 42 = assay: % 42 lowering and 40/42 selectivity after dosing in mg/kg (Table 5); assay type: in vivo
Aβ-42 = Aβ-42 MSD 3-plex ELISA, conditioned media of 2B7 cells; assay type: cell-based; conditions: Homo sapiens, 5 hours treatment
Protocol: (§1) Assays were conducted to determine the ability of a Compound of Formula I to modulate […], and Aβ-38.
(§2) Plates with capture antibodies were blocked for 1-2 hours at room temperature with 150 μL of the manufactures blocking reagent.
(§3) Cultured 2B7 cells in 96 well plate with 250 μL of media per well until confluent;
(§4) Prepared serial dilutions of compounds in DMSO at 100× the final desired concentration;
(§5) Washed wells with 2B7 cells 1× with 250 μL of media;
(§6) Diluted DMSO stocks 1:100 into media: • Added 250 μL of media containing compounds (1% DMSO) to wells with 2B7 cells for 5 hours at 37° C.
(§7) ELISA Sample Prep: • Diluted conditioned media: 1 part media with 1% DMSO and 1 part blocking buffer; • 150 μL of the 250 μL of conditioned media were used.
(§8) Prepared per manufacturer's protocol (see above). • Seven point standard curve samples were prepared that contained Aβ-42, Aβ-40, and Aβ-38. The highest concentration of Aβ-42 and Aβ-38 was 3,000 pg/mL and the highest concentration of Aβ-40 was 10,000 pg/mL. Subsequent serial dilutions were 1:3 and the final composition of each sample was 1 part blocking buffer and 1 part cell medium containing 1% DMSO.
(§9) Overnight Sample Incubation: • Blocked plates are washed 5× with MSD wash buffer with a plate washer; • […] and blocker G reagent in MSD blocking solution was added; • 25 μL of samples (1 part conditioned media containing 1% DMSO and 1 part MSD blocking buffer) were then added; • Plates were incubated overnight at 4 degrees C. or 2 hours at room temperature.
(§10) Final Wash and Readout: • Washed wells 5× with MSD wash buffer; • Added 150 μL 2×MSD read buffer; • Read with MSD imager.
(§11) Aβ peptide levels for each peptide were calculated from the standard curve using the MSD software provided with the MSD 2400 Imager. Percent vehicle values for each compound dosage were then calculated and fit to a 4 parameter curve generating IC50 values.
(§12) Conditioned media from 2B7 cells (Mayo) was collected after 5 hours of treatment and diluted with 1 volume of Meso Scale Discovery (MSD, Gaithersburg Md.) blocking buffer (1% BSA in MSD wash buffer). For total Aβ measurements, standard-bind, multi-array single spot 96 well MSD ELISA plates were coated with unlabeled 4G8 capture antibody (Covance, Princeton, N.J.) overnight at 4° C. and then blocked with 5% BSA in MSD wash buffer for 1 hour at room temperature with orbital shaking Diluted 2B7 conditioned media were added to the blocked in-house total Aβ MSD plates with SULFO-TAG 6E10 antibody (MSD). For Aβ38, 40 and 42 measurements, diluted 2B7 conditioned media were added to blocked human (6E10) Aβ 3-Plex plates (MSD). Total Aβ and Aβ 3-Plex plates were incubated for 2 hours at room temperature with orbital shaking followed by washing and reading according to the manufacturer's instructions (SECTOR® Imager 2400, MSD). Aβ concentrations were converted to percent vehicle values and used to construct dose response curves which were fitted to […] using GraphPad Prism version 5.00 for Windows, GraphPad Software, San Diego Calif. USA.

Aβ-38 = Aβ-38 MSD 3-plex ELISA, conditioned media of 2B7 cells; assay type: cell-based; conditions: Homo sapiens, 5 hours treatment, read-out: Aβ 38 IC50
Protocol: as §1, §2, §3, §4, §5, §6, §7, §8, §9, §10, §11, §12

Aβ-40 = Aβ-40 MSD 3-plex ELISA, conditioned media of 2B7 cells; assay type: cell-based; conditions: Homo sapiens, 5 hours treatment, read-out: Aβ 40 IC50
Protocol: as §1, §2, §3, §4, §5, §6, §7, §8, §9, §10, §11, §12

[1] = inflection of dose response curve, read-out: Aβ 42 DR IC50 Inflection

| Structure (SMILES) | %42 lowering 10 hr (Aβ 42; 150 mg/kg) | %42 lowering 10 hr (Aβ 42; 100 mg/kg) | IC50 (Aβ-42; [1]) | IC50 (Aβ-42; read-out: Aβ 42 IC50) | IC50 (Aβ-38) | further results |
| --- | --- | --- | --- | --- | --- | --- |
| CCO[C@@H]([C@H]1C[C@@H](C)[C@H]2[C@H](O1)[C@H](O)[C@@]1(C)[C@@H]3CC[C@H]4C(C)(C)[C@@H](O[C@H]5CN(CC6CN(C)C6)CCO5)CC[C@@]45C[C@@]35CC[C@]21C)C(C)(C)O [Compound I-5] | A (% 42 lowering of under 15%) | – | – | – | – | – |
| CCO[C@@H]([C@H]1C[C@@H](C)[C@H]2[C@H](O1)[C@H](O)[C@@]1(C)[C@@H]3CC[C@H]4C(C)(C)[C@@H](O[C@H]5CN(C6CN(C(C)C)C6)CCO5)CC[C@@]45C[C@@]35CC[C@]21C)C(C)(C)O [Compound I-6] | C (% 42 lowering of 21-25%) | – | – | – | – | %42 lowering 24 hr (Aβ 42; 100 mg/kg): E^a (% 42 lowering of greater than 31%) |
| CCO[C@@H]([C@H]1C[C@@H](C)[C@H]2[C@H](O1)[C@H](O)[C@@]1(C)[C@@H]3CC[C@H]4C(C)(C)[C@@H](O[C@H]5CN(C6CN(C7CCC7)C6)CCO5)CC[C@@]45C[C@@]35CC[C@]21C)C(C)(C)O [Compound I-13] | D (% 42 lowering of 26-30%) | – | – | – | – | %42 lowering 24 hr (Aβ 42; 150 mg/kg): D (% 42 lowering of 26-30%) |
| CCO[C@@H]([C@H]1C[C@@H](C)[C@H]2[C@H](O1)[C@H](O)[C@@]1(C)[C@@H]3CC[C@H]4C(C)(C)[C@@H](O[C@H]5CN(CC6CN(CCOC)C6)CCO5)CC[C@@]45C[C@@]35CC[C@]21C)C(C)(C)O [Compound I-20] | – | A^a (% 42 lowering of under 15%) | – | – | – | – |
| CCO[C@@H]([C@H]1C[C@@H](C)[C@H]2[C@H](O1)[C@H](O)[C@@]1(C)[C@@H]3CC[C@H]4C(C)(C)[C@@H](O[C@H]5CN(CC6CN(CC(C)(C)O)C6)CCO5)CC[C@@]45C[C@@]35CC[C@]21C)C(C)(C)O [Compound I-24] | – | A^a (% 42 lowering of under 15%) | – | – | – | %42 lowering 24 hr (Aβ 42; 100 mg/kg): C^a (% 42 lowering of 21-25%) |
| CCO[C@@H]([C@H]1C[C@@H](C)[C@H]2[C@H](O1)[C@H](O)[C@@]1(C)[C@@H]3CC[C@H]4C(C)(C)[C@@H](O[C@H]5CN(C6CCN(CCOC)CC6)CCO5)CC[C@@]45C[C@@]35CC[C@]21C)C(C)(C)O [Compound I-28] | – | A^a (% 42 lowering of under 15%) | 0.1 to 0.5 µM | 0.1 to 0.5 µM | 0.501 to 1 µM | 40/42 selective 10 hr (Aβ 42; 100 mg/kg): F^a (10-15 fold selectivity) |
| CCO[C@@H]([C@H]1C[C@@H](C)[C@H]2[C@H](O1)[C@H](O)[C@@]1(C)[C@@H]3CC[C@H]4C(C)(C)[C@@H](O[C@H]5CN(C6CCN(C(C)C)CC6)CCO5)CC[C@@]45C[C@@]35CC[C@]21C)C(C)(C)O [Compound I-30] | – | A^a (% 42 lowering of under 15%) | < 0.1 µM | < 0.1 µM | 0.1 to 0.5 µM | IC50 (Aβ-40): 1 to 5 µM; 40/42 selective 10 hr (Aβ 42; 100 mg/kg): G^a (16-20 fold selectivity) |
| CCO[C@@H]([C@H]1C[C@@H](C)[C@H]2[C@H](O1)[C@H](O)[C@@]1(C)[C@@H]3CC[C@H]4C(C)(C)[C@@H](O[C@H]5CN(C6CN(C(CO)CO)C6)CCO5)CC[C@@]45C[C@@]35CC[C@]21C)C(C)(C)O [Compound I-74] | – | – | 0.1 to 0.5 µM | 0.1 to 0.5 µM | 0.1 to 0.5 µM | IC50 (Aβ-40): 1 to 5 µM |
